6 molecules from patent US20250084056A1, “SUBSTITUTED OXOISOINDOLINYL PIPERIDINE-2,6-DIONE COMPOUNDS” (BRISTOL-MYERS SQUIBB COMPANY, priority 2023, published 2025) can be followed below.

Holding throughout (type): cell-based
One assay concerns Phospho-Rb (Ser807/811). As to the kind of experiment: Phospho-Retinoblastoma (pRB) Cellular Assay. The settings on record: Homo sapiens, OVCAR-3, NIH OVCAR3 cells, 24 hours; for IC50: concentration giving 50% response; for Emax: maximum response, reference compound at 10 μM = 100%, read-out: pRB Ymax. Summed up:
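OVCAR3 cells seeded overnight, then dosed with serial dilutions for 24 h at 37° C. Lysed with kit mix plus phosphatase inhibitor, ≥4 h at room temperature, read on EnVision; 100% response set by reference compound at 10 μM, giving IC50 and Ymax.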

The next assay deals with GSPT1 (Homo sapiens, UniProt P15170+Q96SW2). Briefly: GSPT1 Cellular Degradation Assay (DF15-GSPT1-ePL). The settings on record: DF15-GSPT1-ePL cells, 20 hours. Also noted: expressed in transfected cells. The method, boiled down: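 Human DF15 cells co-expressing a GSPT1–ePL fusion were treated with compound in RPMI 1640/10% FBS for 20 h at 37 °C. GSPT1 level was read by enzyme-fragment-complementation luminescence after 60 min with detection reagent. The reference degrader at […] defined 75% response; DC50 and Dmax were reported.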
GSPT1, sequence (P15170 whole entry, the tested form may be a part): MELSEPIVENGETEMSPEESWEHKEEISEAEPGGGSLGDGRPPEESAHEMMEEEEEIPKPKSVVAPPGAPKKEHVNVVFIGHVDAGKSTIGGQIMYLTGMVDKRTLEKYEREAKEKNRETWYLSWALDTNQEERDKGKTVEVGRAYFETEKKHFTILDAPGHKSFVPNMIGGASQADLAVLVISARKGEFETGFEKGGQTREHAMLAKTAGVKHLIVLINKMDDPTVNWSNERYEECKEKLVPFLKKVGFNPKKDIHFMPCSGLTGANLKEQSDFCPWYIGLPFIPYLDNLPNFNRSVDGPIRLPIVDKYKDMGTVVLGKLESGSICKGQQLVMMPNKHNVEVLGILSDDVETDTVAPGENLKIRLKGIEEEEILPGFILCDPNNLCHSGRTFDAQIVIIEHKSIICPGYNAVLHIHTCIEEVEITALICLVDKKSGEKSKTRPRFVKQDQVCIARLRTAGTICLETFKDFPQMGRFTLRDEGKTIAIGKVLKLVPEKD
GSPT1, sequence (Q96SW2 whole entry, the tested form may be a part): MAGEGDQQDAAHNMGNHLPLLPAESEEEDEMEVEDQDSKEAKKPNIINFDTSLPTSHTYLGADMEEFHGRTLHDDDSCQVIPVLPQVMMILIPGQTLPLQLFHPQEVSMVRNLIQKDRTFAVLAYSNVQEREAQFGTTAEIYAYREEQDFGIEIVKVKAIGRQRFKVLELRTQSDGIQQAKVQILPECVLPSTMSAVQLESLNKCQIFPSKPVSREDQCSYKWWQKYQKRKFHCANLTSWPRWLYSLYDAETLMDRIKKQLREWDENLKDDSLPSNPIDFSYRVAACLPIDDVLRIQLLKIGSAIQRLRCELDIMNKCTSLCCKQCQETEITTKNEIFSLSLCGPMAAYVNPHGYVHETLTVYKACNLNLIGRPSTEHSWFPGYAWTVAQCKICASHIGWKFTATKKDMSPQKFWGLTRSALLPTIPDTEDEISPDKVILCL
GSPT1, sequence (Q16531 whole entry partner, the tested form may be a part): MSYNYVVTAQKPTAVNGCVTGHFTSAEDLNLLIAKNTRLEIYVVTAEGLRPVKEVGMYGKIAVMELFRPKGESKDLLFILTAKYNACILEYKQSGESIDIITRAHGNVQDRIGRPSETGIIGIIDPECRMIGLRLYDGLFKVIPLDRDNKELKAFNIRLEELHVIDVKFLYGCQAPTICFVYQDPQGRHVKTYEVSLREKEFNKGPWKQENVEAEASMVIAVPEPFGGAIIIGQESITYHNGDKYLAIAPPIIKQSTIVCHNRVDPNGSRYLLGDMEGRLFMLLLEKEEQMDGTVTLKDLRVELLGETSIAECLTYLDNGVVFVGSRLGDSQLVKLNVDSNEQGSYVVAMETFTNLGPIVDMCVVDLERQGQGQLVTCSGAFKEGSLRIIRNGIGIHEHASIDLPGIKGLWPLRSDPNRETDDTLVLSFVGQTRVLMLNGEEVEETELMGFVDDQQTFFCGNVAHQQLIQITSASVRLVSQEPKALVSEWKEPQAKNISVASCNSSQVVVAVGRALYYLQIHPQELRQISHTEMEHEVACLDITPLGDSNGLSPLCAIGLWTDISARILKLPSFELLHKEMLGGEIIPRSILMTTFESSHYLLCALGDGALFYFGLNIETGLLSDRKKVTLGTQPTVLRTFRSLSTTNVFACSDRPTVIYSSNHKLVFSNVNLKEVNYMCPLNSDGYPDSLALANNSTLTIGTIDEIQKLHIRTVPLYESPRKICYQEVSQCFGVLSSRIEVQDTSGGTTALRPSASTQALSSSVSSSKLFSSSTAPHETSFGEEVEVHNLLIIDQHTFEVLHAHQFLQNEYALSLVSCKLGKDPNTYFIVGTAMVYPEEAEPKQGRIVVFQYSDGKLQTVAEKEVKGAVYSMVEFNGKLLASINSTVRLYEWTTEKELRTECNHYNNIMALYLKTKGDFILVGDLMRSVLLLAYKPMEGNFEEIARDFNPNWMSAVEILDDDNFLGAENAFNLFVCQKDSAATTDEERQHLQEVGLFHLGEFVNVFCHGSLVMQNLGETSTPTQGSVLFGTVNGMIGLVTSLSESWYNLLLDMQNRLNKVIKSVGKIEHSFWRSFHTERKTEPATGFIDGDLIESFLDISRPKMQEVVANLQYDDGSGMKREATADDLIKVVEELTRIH

A further assay addresses Cyclin E1 (Homo sapiens, UniProt P24864+Q96SW2). Briefly: Cyclin E1 Cellular Degradation Assay (MSD). Also noted: endogenous in cells; host or cells: OVCAR3. The settings on record: for DC50 / Dmax: Cyclin E1 cellular degradation; for Dmax: maximum degradation; for Ratio of GSPT1 DC50/Cyclin E1 DC50: selectivity for degradation of Cyclin E1 over GSPT1. Summed up:
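OVCAR3 cells treated with compound for 24 h at 37 °C, lysed, and cyclin E1 measured by MSD sandwich immunoassay (rabbit capture, mouse detection anti-CCNE1). Reference degrader at […] defined 110% response; DC50 and Dmax derived from response.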

Cyclin E1, sequence (P24864 whole entry): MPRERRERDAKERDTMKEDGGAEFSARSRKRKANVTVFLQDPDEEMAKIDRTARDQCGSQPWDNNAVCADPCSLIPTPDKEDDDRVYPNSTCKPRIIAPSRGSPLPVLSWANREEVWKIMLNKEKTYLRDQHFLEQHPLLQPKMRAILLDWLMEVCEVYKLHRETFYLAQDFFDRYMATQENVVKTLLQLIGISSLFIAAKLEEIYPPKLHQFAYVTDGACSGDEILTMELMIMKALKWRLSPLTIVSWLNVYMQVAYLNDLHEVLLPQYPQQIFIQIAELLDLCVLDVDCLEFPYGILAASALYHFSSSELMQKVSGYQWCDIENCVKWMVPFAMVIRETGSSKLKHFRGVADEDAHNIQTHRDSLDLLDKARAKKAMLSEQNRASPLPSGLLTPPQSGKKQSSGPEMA
Cyclin E1, sequence (Q96SW2 whole entry): as the sequence (Q96SW2 whole entry, the tested form may be a part) above
Cyclin E1, sequence (Q16531 whole entry partner): as the sequence (Q16531 whole entry partner, the tested form may be a part) above

Usually IC50 stands for the midpoint of a concentration-inhibition curve. In general, DC50 refers to the concentration at which degradation of the target reaches its halfway point. Read a high DC50 as a less potent degrader. Broadly, the Dmax is the greatest extent of degradation seen. With `CCOc1c(COC(=O)Nc2ccc(Oc3ccc(F)c(F)c3)cc2)ccc2c1C(=O)N(C1CCC(=O)NC1=O)C2` (stereo not drawn) [Example 53, [2-(2,6-dioxopiperidin-3-yl)-4-ethoxy-3-oxo-2,3-dihydro-1H-isoindol-5-yl]methyl N-[4-(3,4-difluorophenoxy)phenyl]carbamate], in the assay on Phospho-Rb (Ser807/811), the IC50 is 86 nM and the Emax is 99%. In addition, on GSPT1, the DC50 is over 14000 nM and the Dmax was 37%. In addition, on Cyclin E1, the DC50 came to 176 nM, the Dmax was found to be 109% and the “Ratio of GSPT1 DC50/Cyclin E1 DC50” value is over 80.
`CCOc1c(COC(=O)Nc2ccc(Oc3cccc(Cl)c3)cc2)ccc2c1C(=O)N(C1CCC(=O)NC1=O)C2` (stereo not drawn) [Example 54, [2-(2,6-dioxopiperidin-3-yl)-4-ethoxy-3-oxo-2,3-dihydro-1H-isoindol-5-yl]methyl N-[4-(3-chlorophenoxy)phenyl]carbamate]: in the assay on Phospho-Rb (Ser807/811), the IC50 was determined as 624 nM and the Emax was found to be 102%. Moreover, on GSPT1, the DC50 was over 14000 nM and the Dmax was 22%. Besides, on Cyclin E1, the DC50 was 58 nM, the Dmax stood at 116% and the “Ratio of GSPT1 DC50/Cyclin E1 DC50” value is over 241.
In the case of `CCOc1c(COC(=O)Nc2ccc(Oc3cccc(F)c3)cc2)ccc2c1C(=O)N(C1CCC(=O)NC1=O)C2` (stereo not drawn) [Example 55, [2-(2,6-dioxopiperidin-3-yl)-4-ethoxy-3-oxo-2,3-dihydro-1H-isoindol-5-yl]methyl N-[4-(3-fluorophenoxy)phenyl]carbamate], in the assay with Phospho-Rb (Ser807/811), the IC50 turned out to be 185 nM and the Emax worked out at 114%. Further, at GSPT1, the DC50 was over 14000 nM and the Dmax is 21%. Further, on Cyclin E1, the DC50 amounted to 141 nM, the Dmax turned out to be 108% and the “Ratio of GSPT1 DC50/Cyclin E1 DC50” value is reported as over 99.
For the molecule `CC(C)Oc1c(COC(=O)Nc2ccc(Oc3ccc(F)c(F)c3)cc2)ccc2c1C(=O)N(C1CCC(=O)NC1=O)C2` (stereo not drawn) [Example 56, [2-(2,6-dioxopiperidin-3-yl)-3-oxo-4-(propan-2-yloxy)-2,3-dihydro-1H-isoindol-5-yl]methyl N-[4-(3,4-difluorophenoxy)phenyl]carbamate], in the assay with Phospho-Rb (Ser807/811), the IC50 worked out at 113 nM and the Emax was 127%. Moreover, on GSPT1, the DC50 was over 14000 nM and the Dmax was determined as 19%. For the same molecule, at Cyclin E1, the DC50 came out at 159 nM, the Dmax came out at 106% and the “Ratio of GSPT1 DC50/Cyclin E1 DC50” value was over 88.
Take `CC(C)Oc1c(COC(=O)Nc2ccc(Oc3ccccc3)cc2)ccc2c1C(=O)N(C1CCC(=O)NC1=O)C2` (stereo not drawn) [Example 57, [2-(2,6-dioxopiperidin-3-yl)-3-oxo-4-(propan-2-yloxy)-2,3-dihydro-1H-isoindol-5-yl]methyl N-(4-phenoxyphenyl)carbamate]: in the assay on Phospho-Rb (Ser807/811), the IC50 was found to be 212 nM and the Emax was found to be 114%. At GSPT1, the DC50 was over 14000 nM and the Dmax came to 36%. Further, at Cyclin E1, the DC50 is 128 nM, the Dmax is 102% and the “Ratio of GSPT1 DC50/Cyclin E1 DC50” value is recorded as over 109.
For `CC(C)Oc1c(COC(=O)Nc2ccc(Oc3cccc(Cl)c3)cc2)ccc2c1C(=O)N(C1CCC(=O)NC1=O)C2` (stereo not drawn) [Example 58, [2-(2,6-dioxopiperidin-3-yl)-3-oxo-4-(propan-2-yloxy)-2,3-dihydro-1H-isoindol-5-yl]methyl N-[4-(3-chlorophenoxy)phenyl]carbamate], in the assay on Phospho-Rb (Ser807/811), half-maximal inhibition (IC50) required 298 nM and the Emax came to 109%. Moreover, on GSPT1, the DC50 was over 14000 nM and the Dmax was determined as 48%. Moreover, at Cyclin E1, the DC50 amounted to 139 nM, the Dmax is 104% and the “Ratio of GSPT1 DC50/Cyclin E1 DC50” value is on record as over 100.
